Experimental data as given in the NIST ThermoML archive (doi:10.1016/j.jct.2017.05.001).

Experiment: wn = mass fraction of the nth substance listed
Details: Liquid; for mass density: Vibrating tube method

OCCNCCO [diethanolamine] + O
viscosity [mPa·s]
Details	w1 = 0.0993	w1 = 0.1	w1 = 0.2	w1 = 0.3	w1 = 0.3002	w1 = 0.3997	w1 = 0.4
293.15 K, 100 kPa, Concentric cylinders viscometry	–	1.486	2.287	3.621	–	–	6.311
293.15 K, 100 kPa, Falling or rolling sphere viscometry	1.493	–	2.219	–	3.633	6.248	–
293.15 K, 5000 kPa, Falling or rolling sphere viscometry	1.49	–	2.215	–	3.617	6.351	–
293.15 K, 10000 kPa, Falling or rolling sphere viscometry	1.486	–	2.214	–	3.635	6.416	–
293.15 K, 15000 kPa, Falling or rolling sphere viscometry	1.49	–	2.217	–	3.634	6.463	–
293.15 K, 20000 kPa, Falling or rolling sphere viscometry	1.487	–	2.217	–	3.661	6.534	–
293.15 K, 25000 kPa, Falling or rolling sphere viscometry	1.488	–	2.218	–	3.676	6.598	–
293.15 K, 30000 kPa, Falling or rolling sphere viscometry	1.487	–	2.22	–	3.688	6.6	–
293.15 K, 40000 kPa, Falling or rolling sphere viscometry	1.486	–	2.221	–	3.714	6.683	–
293.15 K, 60000 kPa, Falling or rolling sphere viscometry	1.487	–	2.242	–	3.766	6.853	–
293.15 K, 80000 kPa, Falling or rolling sphere viscometry	1.49	–	2.26	–	3.818	6.973	–
293.15 K, 100000 kPa, Falling or rolling sphere viscometry	1.494	–	2.277	–	3.874	7.169	–
313.15 K, 100 kPa, Concentric cylinders viscometry	–	0.914	1.343	1.977	–	–	3.197
313.15 K, 100 kPa, Falling or rolling sphere viscometry	0.9237	–	1.304	–	1.98	3.168	–
313.15 K, 5000 kPa, Falling or rolling sphere viscometry	0.915	–	1.292	–	1.976	3.174	–
313.15 K, 10000 kPa, Falling or rolling sphere viscometry	0.9172	–	1.296	–	1.983	3.222	–
313.15 K, 15000 kPa, Falling or rolling sphere viscometry	0.9188	–	1.301	–	1.993	3.248	–
313.15 K, 20000 kPa, Falling or rolling sphere viscometry	0.9192	–	1.303	–	2.004	3.239	–
313.15 K, 25000 kPa, Falling or rolling sphere viscometry	0.9215	–	1.309	–	2.012	3.28	–
313.15 K, 30000 kPa, Falling or rolling sphere viscometry	0.9226	–	1.312	–	2.022	3.303	–
313.15 K, 40000 kPa, Falling or rolling sphere viscometry	0.9253	–	1.318	–	2.039	3.361	–
313.15 K, 60000 kPa, Falling or rolling sphere viscometry	0.9334	–	1.335	–	2.08	3.438	–
313.15 K, 80000 kPa, Falling or rolling sphere viscometry	0.9414	–	1.353	–	2.119	3.538	–
313.15 K, 100000 kPa, Falling or rolling sphere viscometry	0.9509	–	1.371	–	2.158	3.625	–
333.15 K, 100 kPa, Concentric cylinders viscometry	–	0.64	0.871	1.248	–	–	1.864
333.15 K, 100 kPa, Falling or rolling sphere viscometry	0.6268	–	0.8581	–	1.247	1.885	–
333.15 K, 5000 kPa, Falling or rolling sphere viscometry	0.6258	–	0.8575	–	1.243	1.872	–
333.15 K, 10000 kPa, Falling or rolling sphere viscometry	0.6274	–	0.8602	–	1.248	1.886	–
333.15 K, 15000 kPa, Falling or rolling sphere viscometry	0.6269	–	0.8632	–	1.254	1.9	–
333.15 K, 20000 kPa, Falling or rolling sphere viscometry	0.6303	–	0.8673	–	1.258	1.912	–
333.15 K, 25000 kPa, Falling or rolling sphere viscometry	0.6312	–	0.8717	–	1.265	1.896	–
333.15 K, 30000 kPa, Falling or rolling sphere viscometry	0.6339	–	0.8763	–	1.271	1.943	–
333.15 K, 40000 kPa, Falling or rolling sphere viscometry	0.6383	–	0.8845	–	1.283	1.973	–
333.15 K, 60000 kPa, Falling or rolling sphere viscometry	0.6452	–	0.8989	–	1.312	2.029	–
333.15 K, 80000 kPa, Falling or rolling sphere viscometry	0.6532	–	0.9136	–	1.337	2.086	–
333.15 K, 100000 kPa, Falling or rolling sphere viscometry	0.6623	–	0.9264	–	1.365	2.136	–

mass density [kg/m3]
Details	w1 = 0.0993	w1 = 0.2	w1 = 0.3002	w1 = 0.3997
293.15 K, 100 kPa	1009.4	1021.6	1034.5	1047.5
293.15 K, 500 kPa	1009.5	1021.7	1034.7	1047.7
293.15 K, 1000 kPa	1009.7	1021.9	1034.8	1047.9
293.15 K, 2000 kPa	1010.2	1022.3	1035.2	1048.2
293.15 K, 5000 kPa	1011.4	1023.5	1036.3	1049.3
293.15 K, 10000 kPa	1013.6	1025.5	1038.2	1051
293.15 K, 15000 kPa	1015.6	1027.4	1040	1052.8
293.15 K, 20000 kPa	1017.7	1029.4	1041.8	1054.5
293.15 K, 30000 kPa	1021.8	1033.3	1045.4	1058
293.15 K, 40000 kPa	1025.9	1037	1049	1061.4
293.15 K, 50000 kPa	1029.7	1040.7	1052.5	1064.7
293.15 K, 60000 kPa	1033.6	1044.4	1055.9	1068
293.15 K, 70000 kPa	1037.6	1048	1059.3	1071.2
293.15 K, 80000 kPa	1041.1	1051.4	1062.5	1074.3
293.15 K, 90000 kPa	1044.8	1054.9	1065.8	1077.4
293.15 K, 100000 kPa	1048.5	1058.4	1069.1	1080.6
293.15 K, 110000 kPa	1051.9	1061.6	1072.1	1083.5
293.15 K, 120000 kPa	1055.4	1064.9	1075.3	1086.5
293.15 K, 130000 kPa	1059	1068.3	1078.5	1089.6
293.15 K, 140000 kPa	1062.2	1071.4	1081.4	1092.4
313.15 K, 100 kPa	1002.9	1014.3	1026	1038
313.15 K, 500 kPa	1003.1	1014.4	1026.2	1038.2
313.15 K, 1000 kPa	1003.4	1014.6	1026.4	1038.4
313.15 K, 2000 kPa	1003.7	1015	1026.7	1038.7
313.15 K, 5000 kPa	1005	1016.2	1027.9	1039.8
313.15 K, 10000 kPa	1007	1018.2	1029.7	1041.7
313.15 K, 15000 kPa	1009	1020.1	1031.6	1043.4
313.15 K, 20000 kPa	1011	1022	1033.4	1045.1
313.15 K, 30000 kPa	1015.1	1025.8	1037.1	1048.7
313.15 K, 40000 kPa	1019.1	1029.7	1040.7	1052.3
313.15 K, 50000 kPa	1022.8	1033.2	1044.1	1055.6
313.15 K, 60000 kPa	1026.6	1036.9	1047.6	1059
313.15 K, 70000 kPa	1030.4	1040.4	1051	1062.2
313.15 K, 80000 kPa	1033.9	1043.8	1054.3	1065.4
313.15 K, 90000 kPa	1037.3	1047.1	1057.5	1068.5
313.15 K, 100000 kPa	1040.9	1050.6	1060.8	1071.6
313.15 K, 110000 kPa	1044.4	1053.9	1063.9	1074.7
313.15 K, 120000 kPa	1047.7	1057.1	1067.1	1077.7
313.15 K, 130000 kPa	1051.1	1060.3	1070.2	1080.7
313.15 K, 140000 kPa	1054.4	1063.5	1073.3	1083.6
333.15 K, 100 kPa	993.4	1004.2	1015.4	1026.6
333.15 K, 500 kPa	993.7	1004.4	1015.5	1026.8
333.15 K, 1000 kPa	993.9	1004.6	1015.7	1027
333.15 K, 2000 kPa	994.3	1005	1016.2	1027.4
333.15 K, 5000 kPa	995.5	1006.2	1017.3	1028.5
333.15 K, 10000 kPa	997.6	1008.2	1019.3	1030.4
333.15 K, 15000 kPa	999.6	1010.2	1021.2	1032.3
333.15 K, 20000 kPa	1001.6	1012.1	1023.1	1034.2
333.15 K, 30000 kPa	1005.7	1016	1026.9	1037.8
333.15 K, 40000 kPa	1009.7	1020	1030.6	1041.6
333.15 K, 50000 kPa	1013.4	1023.6	1034.1	1045
333.15 K, 60000 kPa	1017.2	1027.1	1037.7	1048.4
333.15 K, 70000 kPa	1020.9	1030.8	1041.1	1051.8
333.15 K, 80000 kPa	1024.5	1034.2	1044.4	1055
333.15 K, 90000 kPa	1028	1037.5	1047.7	1058.2
333.15 K, 100000 kPa	1031.5	1041	1051.1	1061.5
333.15 K, 110000 kPa	1034.9	1044.2	1054.3	1064.6
333.15 K, 120000 kPa	1038.4	1047.7	1057.5	1067.8
